Data from patent US6472418B1, “Non-peptide NK1 receptors antagonists” (Warner-Lambert Company, priority 1998, dated 2002).

These compounds were tested against T1, Human NK1 Receptor (Homo sapiens, UniProt P25103) (assay: In Vitro Human NK1 Receptor Binding Assay ([125I]Bolton-Hunter substance P displacement, IM9 cells)). Conditions: Human lymphoma IM9 cells, [125I]Bolton-Hunter substance P; Table 3, array-synthesis products; read-out: IC50 (nM) hNK1.
T1 construct: endogenous in cells; host or cells: Human lymphoma IM9 cells (whole cells)
How it was run: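 Radioligand displacement on whole IM9 human lymphoma cells (2.5×10^6 cells/mL) using [125I]Bolton-Hunter substance P (0.05-0.1 nM), 50 min at 21° C in Tris pH 7.4/MnCl2 buffer with protease inhibitors. Non-specific binding defined by […] [Sar9, Met(O2)11] substance P. Filtration, gamma counting, iterative curve fitting.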

T1 sequence (P25103 whole entry): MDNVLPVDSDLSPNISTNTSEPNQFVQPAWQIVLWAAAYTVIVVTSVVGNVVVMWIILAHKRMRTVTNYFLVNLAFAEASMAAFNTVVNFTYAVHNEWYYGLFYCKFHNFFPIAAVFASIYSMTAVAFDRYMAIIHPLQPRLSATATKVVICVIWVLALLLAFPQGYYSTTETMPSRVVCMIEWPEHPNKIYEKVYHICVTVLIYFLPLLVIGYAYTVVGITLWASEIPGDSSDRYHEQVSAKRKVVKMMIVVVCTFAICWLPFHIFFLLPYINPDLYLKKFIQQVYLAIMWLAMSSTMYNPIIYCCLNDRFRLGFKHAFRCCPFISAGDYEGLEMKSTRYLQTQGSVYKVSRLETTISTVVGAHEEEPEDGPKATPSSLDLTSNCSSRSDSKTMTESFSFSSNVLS

IC50 [nM]	SMILES
51	O=C(NCCc1ccc([N+](=O)[O-])cc1)C(Cc1c[nH]c2ccccc12)NCc1cc2ccccc2o1 (stereo not shown) [Example 281, 2-[(Benzofuran-2-ylmethyl)-amino]-3-(1H-indol-3-yl)-N-[2-(4-nitro-phenyl)-ethyl]-propionamide]
> 10000	CC(C)(CNC(=O)C(Cc1c[nH]c2ccccc12)NCc1cc2ccccc2o1)c1ccccc1 (stereo not shown) [Example 257, 2-[(Benzofuran-2-ylmethyl)-amino]-3-(1H-indol-3-yl)-N-(2-methyl-2-phenyl-propyl)-propionamide]
7	CC(NC(=O)C(Cc1c[nH]c2ccccc12)NCc1cc2ccccc2o1)c1ccsc1 (stereo not shown) [Example 236, 2-[(Benzofuran-2-ylmethyl)-amino]-3-(1H-indol-3-yl)-N-(1-thiophen-3-yl-ethyl)-propionamide]
> 10000	O=C(NCC1CCCO1)C(Cc1c[nH]c2ccccc12)NCc1cc2ccccc2o1 (stereo not shown) [Example 223, 2-[(Benzofuran-2-ylmethyl)-amino]-3-(1H-indol-3-yl)-N-(tetrahydro-furan-2-ylmethyl)-propionamide]
15	Cc1ccc(C(C)NC(=O)C(Cc2c[nH]c3ccccc23)NCc2cc3ccccc3o2)s1 (stereo not shown) [Example 208, 2-[(Benzofuran-2-ylmethyl)-amino]-3-(1H-indol-3-yl)-N-[1-(5-methyl-thiophen-2-yl)-ethyl]-propionamide]

Same assay, conditions: Table 4; [125I]Bolton-Hunter substance P displacement, human IM9 cells; read-out: IC50 (nM) hNK1

IC50 [nM]	SMILES
548	CC(NC(=O)C(C)(Cc1c[nH]c2ccccc12)NCc1cccs1)c1ccccc1 (stereo not shown) [compound 357, 3-(1H-Indol-3-yl)-2-methyl-N-(1-phenyl-ethyl)-2-[(thiophen-2-ylmethyl)-amino]-propionamide]

Same assay, conditions: Table 5; [125I]Bolton-Hunter substance P displacement, human IM9 cells; read-out: IC50 (nM) hNK1

IC50 [nM]	SMILES
> 10000	CC(NC(=O)C(Cc1c[nH]c2ccccc12)NCC(=Cc1ccccc1)c1ccccc1)c1ccccc1 (stereo not shown) [compound 376]
932	CC(NC(=O)C(Cc1c[nH]c2ccccc12)NCC=Cc1ccc(OCc2ccccc2)cc1)c1ccccc1 (stereo not shown) [compound 378]
240	CC(NC(=O)C(Cc1c[nH]c2ccccc12)NCc1ccc2c(c1)OCO2)c1ccccc1 (stereo not shown) [compound 386]
1070	CC(NC(=O)C(Cc1c[nH]c2ccccc12)NCc1cccs1)c1ccccc1 (stereo not shown) [compound 396]

Same assay, conditions: human NK1 receptor, IM9 cells, [125I]Bolton-Hunter substance P; read-out: IC50 (nM) hNK1

IC50 [nM]	SMILES
> 10000	CC(Cc1c[nH]c2ccccc12)(NCc1cc2ccccc2o1)C(=O)NCc1ccc(C(=O)O)cc1 (stereo not shown) [compound 171, 4-{[2-[(Benzofuran-2-ylmethyl)-amino]-3-(1H-indol-3-yl)-2-methyl-propionylamino]-methyl}-benzoic acid]
1140	CC(Cc1c[nH]c2ccccc12)(NCc1cc2ccccc2o1)C(=O)NCC1(c2ccccc2)CC1 (stereo not shown) [compound 110, 2-[(Benzofuran-2-ylmethyl)-amino]-3-(1H-indol-3-yl)-2-methyl-N-(1-phenyl-cyclopropylmethyl)-propionamide]
> 10000	CC(Cc1c[nH]c2ccccc12)(NCc1cc2ccccc2o1)C(=O)NCC(c1ccccc1)c1ccccc1 (stereo not shown) [compound 98, 2-[(Benzofuran-2-ylmethyl)-amino]-N-(2,2-diphenyl-ethyl)-3-(1H-indol-3-yl)-2-methyl-propionamide]
> 10000	CC(Cc1c[nH]c2ccccc12)(NCc1cc2ccccc2o1)C(=O)NCC1CCNCC1 (stereo not shown) [compound 156, 2-[(Benzofuran-2-ylmethyl)-amino]-3-(1H-indol-3-yl)-2-methyl-N-piperidin-4-ylmethyl-propionamide]
> 10000	CC(Cc1c[nH]cn1)NC(=O)C(C)(Cc1c[nH]c2ccccc12)NCc1cc2ccccc2o1 (stereo not shown) [compound 90, 2-[(Benzofuran-2-ylmethyl)-amino]-N-[2-(1H-imidazol-4-yl)-1-methyl-ethyl]-3-(1H-indol-3-yl)-2-methyl-propionamide]
> 10000	CC(Cc1c[nH]c2ccccc12)(NCc1cc2ccccc2o1)C(=O)NCc1cccc(OC(F)(F)F)c1 (stereo not shown) [compound 59, 2-[(Benzofuran-2-ylmethyl)-amino]-3-(1H-indol-3-yl)-2-methyl-N-(3-trifluoromethoxy-benzyl)-propionamide]
